Laboratory results as given in patent US20140323575A1, “TYROSINE ISOMERS AS THERAPEUTIC AGENTS” (CONSEJO NACIONAL DE INVESTIGACIONES CIENTIFICAS Y TECNICAS …, priority 2011, published 2014).
In brackets after ≈: the same amount, converted by molar mass. Entries after “also recorded” stand apart in the source; their conditions may differ.

Columns and labels:
LB tumor cells = test: In vitro LB tumor cell proliferation ([3H]-thymidine uptake); format: cell-based, mice; conditions: for IC50: Mus musculus, substance alone, read-out: GIU50/mL on in vitro LB tumor cell proliferation; for reversibility of the inhibitory effect: after 18 hours of culture, old medium replaced by fresh medium
Experimental: Each point (percentage of cpm incorporated by LB cells as compared with the control) represents the mean±SE of 3 experiments. Significance versus control, meta-tyrosine and peak 2: P<0.001 at >2.75 μg/mL; peak 2: P<0.05 at 2.75 μg/mL. ortho-tyrosine P<0.001 at 500 to 125 μg/mL; P<0.002 at 30 μg/mL. Peak 3: P<0.002 and P<0.01, at 31 and 15.5 μg/mL, respectively. Rescue of in vitro LB tumor inhibition mediated by meta-tyrosine (150 μg/mL)(B) or ortho-tyrosine (150 μg/mL) (C) by co-culturing with 150 μg/mL of individual protein amino acids. Each value represents the mean±SE of 8 to 18 determinations for (B) and 4 to 9 determinations for (C). a, P<0.01; c, P<0.001 versus meta- or ortho-tyrosine. Data with saline was similar to data obtained with each amino acid alone.
Fractionation of serum from mice bearing a subcutaneous LB tumor (size≧2,000 mm^3) was carried out through several steps of purification (FIG. 1). Serum from normal mice was similarly fractioned as control. At all stages of the purification, the presence of the inhibitory factor was monitored by the [^3H]-thymidine uptake assay as a measure of LB tumor cell proliferation. First, serum was decomplemented and subjected to dialysis. The inhibitory factor was recovered only in the dialyzable fraction (MW<12,500 Da) and was then concentrated by lyophilization and applied successively to Sephadex G-25 and G-15 chromatographic columns, where activity was recovered at fractions corresponding to a molecular weight below 1,000 Da. These fractions were lyophilized and further purified with an HPLC column C18 in a gradient of acetonitrile in TFA (first HPLC). In 12 similar and independent experiments, growth inhibitory activity was systematically recovered in only 1 fraction eluted at near 20% acetonitrile (FIG. 2).
To test directly whether a “cocktail” of amino acids similar to that detected close to the “primary site” was more counteracting of the antitumor effects produced by m- and o-tyrosine than a “secondary site cocktail,” different concentrations of a mixture of m-tyrosine and o-tyrosine (ratio 1:1) were assayed on LB tumor cell proliferation, alone or together with a primary or a secondary site cocktail of amino acids.

C7HI tumor metastases = test: Spontaneous metastases of C7HI mammary adenocarcinoma in vivo; design: species or system mice
Experimental: FIG. 7A illustrates an experiment in which mice bearing a C7HI tumor for 50 days received, between days 50 and 64, a daily intravenous injection of meta-tyrosine (0.3 mL of 1,000 μg/mL) or saline. Mice were sacrificed at day 50 (n=8, before treatment, primary tumor volume 241±16 mm^3) or at day 65 for treated (n=12, primary tumor volume 1,080±101 mm^3) or control (n=12, primary tumor volume 1,091±88 mm^3) mice, and number and size of macroscopic metastases were determined; d=diameter of metastases in mm; a, P<0.05 (Mann-Whitney U test and Student t test) versus control. […] H&E, hematoxylin and eosin.
Mice bearing a C7HI tumor for 50 days received, between days 50 and 71, a daily intravenous injection of 1.0 mg of meta-tyrosine diluted in 0.1 ml of saline, or saline only. Mice were sacrificed ad day 50 (n=12, before treatment) or at day 71 for treated (n=12) or control (n=12) mice, and number and size of macroscopic metastases were determined; d=diameter of metastases in mm.
C7HI is a breast carcinoma that generates a high number of pulmonary and hepatic metastases, the number of pulmonary metastases being higher than the number of hepatic metastases. In this experiment, 36 mice received one implant each of 5×10^5 tumor C7HI cells. 50 days after implanting the tumor cells, 12 mice were sacrificed for evaluating the number and size of pulmonary and hepatic metastases. The remaining 24 mice were divided in two groups of 12 mice each. The experimental group received 1.0 mg of meta-tyrosine diluted in 0.1 ml of saline per mouse per day. […] The second group (control) received in 0.1 ml of saline per mouse per day. After 21 days of treatment, all mice were sacrificed and the number and size of the metastases were evaluated. […] This inhibitory activity was reflected not only in that the number of metastases of both groups was the same, and in some cases lower, as compared with the number of metastases at the beginning of the treatment (as estimated by the data produced by the 12 mice sacrificed before starting the treatments), but also in that their size was either the same or smaller. This is remarkable because of the 12 experimental mice, there was one showing a low response to the treatment. Should the values measured in this particular mouse be excluded from the pool, the number of metastases at day 71 in the experimental group would have been less than half the number of metastases observed before the start of the treatment at day 50.

CEI tumor = test: In vivo growth of s.c. CEI epidermoid carcinoma implants; design: species or system mice; conditions: for effect on growth of CEI tumor implants: mouse, in vivo
Experimental: Twelve mice received a s.c. implant of 1×10^6 CEI tumor cells in the right flank and 28 days later they received a secondary implant of 3×10^5 CEI tumor cells in the left flank. […] The remaining 6 mice received 0.2 ml of phenylalanine (500 μg/ml) at the site of the secondary implant, daily, for 19 days, starting 1 hour later than the secondary implant. These secondary implants grew as in 6 controls only receiving the implant in the left flank (tumor volumes of secondary tumor+phenylalanine and of controls, 20 days after the implant in the left flank were 358±38 mm^3 and 373±93 mm^3, respectively). […] Significance: Secondary tumor and control+m-tyrosine vs. control: p<0.01; vs. secondary tumor+phenylalanine: p<0.001.

[1] = 1.0 mg per mouse per day, intravenous, 21 days

Compound | IC50 (LB tumor cells) [µg/mL] | reversibility of the inhibitory effect (LB tumor cells) | inhibitory effect of m-tyrosine relative to o-tyrosine (LB tumor cells; in vitro LB tumor cell proliferation) | difference between size of primary tumors at day 71, experimental versus controls (C7HI tumor metastases; 1.0 mg daily intravenous, days 50 to 71) | growth of microscopic metastases (C7HI tumor metastases; [1]) | hepatic metastases at day 71 (C7HI tumor metastases; [1]) | growth of established macroscopic pulmonary metastases (C7HI tumor metastases; 1.0 mg per mouse per day, intravenous, 21 days (days 50-71)) | primary tumor volume at day 65 (C7HI tumor metastases; daily intravenous 0.3 mL of 1,000 μg/mL, days 50 to 64) | established spontaneous C7HI lung metastases (C7HI tumor metastases; daily intravenous 0.3 mL of 1,000 μg/mL, days 50 to 64 (FIG. 7), listed as m-tyrosine) | tumor volume 20 days after the implant in the left flank (CEI tumor; CEI implant in left flank only, 0.2 ml of 500 μg/ml daily for 19 days at the site of the implant) [mm^3] | effect on growth of CEI tumor implants (CEI tumor) | effect on C7HI metastases, experiment repeated with orto-tyrosine (C7HI tumor metastases; mouse, in vivo)
NC(Cc1cccc(O)c1)C(=O)O (stereo not drawn) [meta-tyrosine, 3-hydroxyphenylalanine] | 4.5 ± 0.9 (≈ 24.8 µM) | reversible | about 10 times | not significant | prevented growth | no metastases were detected | prevented the growth | 1,080±101 mm^3 | less metastatic foci; also recorded: sharp inhibitory effects | 0 | sharp inhibitory effects | 
NC(Cc1ccccc1O)C(=O)O (stereo not drawn) [ortho-tyrosine, 2-hydroxyphenylalanine] | 46.7 ± 5.2 (≈ 258 µM) | reversible |  |  |  |  |  |  |  |  | inhibitory | inhibitory effect
